In one data set the test system is parental HEK cells. In words: HEK parental Agonist Counterscreen Assay (non-transfected cells). It counts as cell-based. The settings on record: for Averaged Max % Response (±St. Dev.): activity relative to known control. An excerpt:
The high control for the agonist counterscreen was Forskolin not acetylcholine.
On the technique in general: A counterscreen serves to expose hits that act by an unwanted route or on another target.

The next data set addresses T1, GPR139 (Homo sapiens, UniProt Q6DWJ6).
T1 sequence (Q6DWJ6 1-353): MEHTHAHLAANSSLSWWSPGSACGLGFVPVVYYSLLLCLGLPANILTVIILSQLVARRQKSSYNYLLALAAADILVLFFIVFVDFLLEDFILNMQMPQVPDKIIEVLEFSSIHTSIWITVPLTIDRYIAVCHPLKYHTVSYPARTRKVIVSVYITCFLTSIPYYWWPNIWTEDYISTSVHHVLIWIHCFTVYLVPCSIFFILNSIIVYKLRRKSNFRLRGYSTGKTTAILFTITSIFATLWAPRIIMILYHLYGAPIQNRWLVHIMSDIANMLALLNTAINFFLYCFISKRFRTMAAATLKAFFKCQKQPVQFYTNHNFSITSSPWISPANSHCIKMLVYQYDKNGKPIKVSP
In words: GPR139 Agonist titration / agonist counterscreen assay (calcium detection, HEK-GPR139 cells). It counts as cell-based. Further details: expressed in transfected cells; host or cells: HEK Aequorin cells, Maxcyte transient transfection. The settings on record: GPR139 Agonist Activity; for Averaged Max % Response (±St. Dev.): activity relative to known control; for EC50: read-out: EC50. The method, then:
GPR activity was assessed using a calcium detection assay. […] Negative control samples were treated with DMSO. […] Intracellular calcium was measured using Calcium 5.

Where [1] appears, read: Homo sapiens, HEK293, HEK Agonist Activity section of Table 4 (parental HEK counterscreen).
The mark [2] stands for this setting: values printed in E-notation without unit.

Where two headings read alike, the source gives them in different places.

As for `Cc1ccc(CNc2nc3ccccc3n2CCN2CCOCC2)cc1` [SR-01000364205], in the data set on parental HEK cells (HEK Agonist Activity section), the “Lipophilic Efficiency (logD)” value was 1.29, the “Lipophilic Efficiency (logP)” value amounted to 1.08 and the “Averaged Max % Response (±St. Dev.)” value is reported as −1.19 ± 1.27%. Further, in the data set on parental HEK cells (setting [1]), the EC50 is above 14100 nM. Moreover, at GPR139, the “Efficiency Ligand” value was 0.33, the “Hill Slope” value stood at 1.55, the “Lipophilic Efficiency (logD)” value came to 2.50 and the “Lipophilic Efficiency (logP)” value amounted to 2.29. Also, the “Averaged Max % Response (±St. Dev.)” value on GPR139 was 94.68 ± 16.83%.
As to `Cc1ccccc1SCC(=O)NNC(=O)c1ccc(Br)s1` [SR-01000069352], the “Lipophilic Efficiency (logD)” value in the data set with parental HEK cells (HEK Agonist Activity section) is reported as 1.25; at GPR139 (based on logD), 3.03. For the same molecule, the entries for the “Lipophilic Efficiency (logP)” value in the data set with parental HEK cells (HEK Agonist Activity section) and on GPR139 (based on logP) were 1.25 and 3.02, respectively. The “Averaged Max % Response (±St. Dev.)” value with parental HEK cells (HEK Agonist Activity section) is given as 11.25 ± 2.29%; at GPR139, 97.44 ± 1.25%. Besides, the figures for the concentration giving a half-maximal response (EC50) with parental HEK cells (setting [1]) and at GPR139 (setting [2]) were above 14600 nM and 248 nM, respectively. Further, the “Hill Slope” value on GPR139 (fitted dose-response curve) was 1.19. Further, the “Efficiency Ligand” value on GPR139 (ligand efficiency) was found to be 0.44.
For `COc1cc(C(=O)NCCn2ccc3ccccc32)cc(OC)c1OC` [SR-01000124399], the “Lipophilic Efficiency (logD)” value in the data set with parental HEK cells (HEK Agonist Activity section) is 2.15; at GPR139 (based on logD) it was 4.50. Moreover, the “Lipophilic Efficiency (logP)” value is listed as 2.15 with parental HEK cells (HEK Agonist Activity section) and 4.50 on GPR139 (based on logP). The entries for the “Averaged Max % Response (±St. Dev.)” value with parental HEK cells (HEK Agonist Activity section) and on GPR139 were −5.54 ± 8.42% and 147.35 ± 21.79%, respectively. The results for the half-maximal effective concentration (EC50) in the data set with parental HEK cells (setting [1]) and on GPR139 (setting [2]) were above 14100 nM and 62.9 nM, respectively. Besides, the “Hill Slope” value on GPR139 (fitted dose-response curve) is listed as 0.70. For the same molecule, the “Efficiency Ligand” value at GPR139 (ligand efficiency) was 0.39.
`COc1ccc(CC(=O)NNC(=O)C(C)Oc2ccc(Cl)cc2Cl)cc1OC` (stereo not drawn) [SR-01000312779]: in the data set with parental HEK cells (HEK Agonist Activity section), the “Lipophilic Efficiency (logD)” value was 1.69, the “Lipophilic Efficiency (logP)” value is 1.66 and the “Averaged Max % Response (±St. Dev.)” value amounted to 13.34 ± 1.65%. Besides, the EC50 in the data set with parental HEK cells (setting [1]) was above 14100 nM. In addition, at GPR139, the “Efficiency Ligand” value stood at 0.30, the “Hill Slope” value was 1.91, the “Lipophilic Efficiency (logD)” value worked out at 2.77 and the “Lipophilic Efficiency (logP)” value was determined as 2.74. Moreover, the “Averaged Max % Response (±St. Dev.)” value at GPR139 amounted to 81.17 ± 17.61%. For the same molecule, the EC50 on GPR139 (HEK-GPR139 cells) stood at 1200 nM.
As to `COc1ccccc1NC(=O)NNC(=O)CN1C(=O)COc2ccccc21` [SR-01000336035], the “Lipophilic Efficiency (logD)” value with parental HEK cells (HEK Agonist Activity section) is recorded as 4.40; at GPR139 (based on logD), 6.65. The “Lipophilic Efficiency (logP)” value in the data set on parental HEK cells (HEK Agonist Activity section) is recorded as 4.40; on GPR139 (based on logP), 6.65. The “Averaged Max % Response (±St. Dev.)” value in the data set with parental HEK cells (HEK Agonist Activity section) is listed as −5.99 ± 6.97%; on GPR139, 100.35 ± 10.43%. The concentration giving a half-maximal response (EC50) was above 14100 nM in the data set on parental HEK cells (setting [1]) and 79.7 nM at GPR139 (setting [2]). Moreover, the “Hill Slope” value on GPR139 (fitted dose-response curve) worked out at 0.39. For the same molecule, on GPR139 (ligand efficiency), the “Efficiency Ligand” value amounted to 0.37.
With `O=C(CN1CCN(Cc2ccccc2Cl)C1=O)NC1CCCCCCC1` [SR-01000125462], the “Lipophilic Efficiency (logD)” value in the data set on parental HEK cells (HEK Agonist Activity section) was 1.58; at GPR139 (based on logD), 3.53. For the same molecule, the “Lipophilic Efficiency (logP)” value with parental HEK cells (HEK Agonist Activity section) is given as 1.58; on GPR139 (based on logP), 3.53. For the same molecule, the values for the EC50 in the data set with parental HEK cells (HEK Agonist Activity section of Table 4 (parental HEK counterscreen)) and on GPR139 (setting [2]) were above 14100 nM and 159 nM, respectively. In addition, the figures for the “Averaged Max % Response (±St. Dev.)” value in the data set on parental HEK cells (HEK Agonist Activity section) and on GPR139 were 6.02 ± 12.03% and 92.90 ± 12.57%, respectively. Moreover, the “Hill Slope” value at GPR139 (fitted dose-response curve) is given as 1.38. The “Efficiency Ligand” value on GPR139 (ligand efficiency) is 0.37.
Turning to `Cc1cccc(Cc2cnc(NC(=O)CC(C)C)s2)c1` [SR-01000071221], the results for the “Lipophilic Efficiency (logD)” value with parental HEK cells (HEK Agonist Activity) and at GPR139 (based on logD) were 0.08 and 2.68, respectively. The “Lipophilic Efficiency (logP)” value amounted to 0.08 with parental HEK cells (HEK Agonist Activity) and 2.68 on GPR139 (based on logP). The “Averaged Max % Response (±St. Dev.)” value in the data set on parental HEK cells (HEK Agonist Activity) is listed as 19.19 ± 7.12%; on GPR139, 129.99 ± 9.49%. Further, the EC50 is above 15600 nM with parental HEK cells (Homo sapiens, HEK293, HEK Agonist Activity, parental non-transfected HEK cells) and 39.6 nM on GPR139 (setting [2]). Further, on GPR139 (fitted dose-response curve), the “Hill Slope” value is 1.13. In addition, the “Efficiency Ligand” value at GPR139 (ligand efficiency) is on record as 0.52.

What is called EC50 is the concentration needed to bring the measured effect to its halfway point.

Source of the values: patent US20250099420A1, “SMALL MOLECULE MODULATORS OF GPR139 COMPLEX” (University of Florida Research Foundation, Incorporated, priority 2022, published 2025).
